Test system: MV-4-11 cells
Assay: Gene expression microarray analysis (Affymetrix PrimeView) and GSEA
Format: cell-based, human
Design: RFU PODN (11730768_x_at) / Fold change /veh PODN (11730768_x_at) / RFU LINC00158 (11744669_a_at) / Fold change /veh LINC00158 (11744669_a_at) / RFU DUSP10 (11751237_a_at) / Fold change /veh DUSP10 (11751237_a_at) / RFU ID3 (11757404_x_at) / Fold change /veh ID3 (11757404_x_at) / RFU PLEKHG5 (11737974_s_at) / Fold change /veh PLEKHG5 (11737974_s_at) / RFU LRRC4B (11730491_at) / Fold change /veh LRRC4B (11730491_at) / RFU GIMAP4 (11747438_a_at) / Fold change /veh GIMAP4 (11747438_a_at) / RFU KRT8 (11758183_x_at) / Fold change /veh KRT8 (11758183_x_at) / RFU CNN1 (11734310_a_at) / Fold change /veh CNN1 (11734310_a_at) / RFU VPS37D (11726825_at) / Fold change /veh VPS37D (11726825_at) / RFU C10orf10 (11716522_x_at) / Fold change /veh C10orf10 (11716522_x_at) / RFU KIR2DL2 /// KIR2DL4 /// KIR2DL5A /// KIR2DL5B /// KIR2DS1 /// KIR2DS2 /// KIR2DS3 /// KIR2DS4 /// KIR3DL3 /// KIR3DL3 /// KIR3DS1 (11738374_at) / Fold change /veh KIR2DL2 /// KIR2DL4 /// KIR2DL5A /// KIR2DL5B /// KIR2DS1 /// KIR2DS2 /// KIR2DS3 /// KIR2DS4 /// KIR3DL3 /// KIR3DL3 /// KIR3DS1 (11738374_at) / RFU C1QL1 (11718748_at) / Fold change /veh C1QL1 (11718748_at) / RFU TMPRSS4 (11747572_a_at) / Fold change /veh TMPRSS4 (11747572_a_at) / RFU HAMP (11756126_x_at) / Fold change /veh HAMP (11756126_x_at) / RFU RNFT2 (11725882_a_at) / Fold change /veh RNFT2 (11725882_a_at) / RFU NR4A2 (11747474_a_at) / Fold change /veh NR4A2 (11747474_a_at) / RFU ABCC12 (11746883_a_at) / Fold change /veh ABCC12 (11746883_a_at) / RFU TMEM136 (11760407_x_at) / Fold change /veh TMEM136 (11760407_x_at) / RFU CLDN22 /// WWC2 (11732394_at) / Fold change /veh CLDN22 /// WWC2 (11732394_at) / RFU HLA-DPB1 (11760878_x_at) / Fold change /veh HLA-DPB1 (11760878_x_at) / RFU SPINT1 (11716480_a_at) / Fold change /veh SPINT1 (11716480_a_at) / RFU GAP43 (11754022_s_at) / Fold change /veh GAP43 (11754022_s_at) / RFU A4GNT (11735810_at) / Fold change /veh A4GNT (11735810_at) / RFU PRB3 (11715151_x_at) / Fold change /veh PRB3 (11715151_x_at) / RFU TUBB4B (11761932_at) / Fold change /veh TUBB4B (11761932_at) / RFU CAPN14 (11732068_a_at) / Fold change /veh CAPN14 (11732068_a_at) / RFU TMCC2 (11721928_a_at) / Fold change /veh TMCC2 (11721928_a_at) / RFU IRGQ (11745062_a_at) / Fold change /veh IRGQ (11745062_a_at) / RFU FAM174B (11720279_a_at) / Fold change /veh FAM174B (11720279_a_at) / RFU TMPRSS4 (11748680_a_at) / Fold change /veh TMPRSS4 (11748680_a_at) / RFU FAM212B (11763350_a_at) / Fold change /veh FAM212B (11763350_a_at) / RFU PLEKHG5 (11743358_a_at) / Fold change /veh PLEKHG5 (11743358_a_at) / RFU ZSCAN30 (11745921_a_at) / Fold change /veh ZSCAN30 (11745921_a_at) / RFU CMKLR1 (11741424_a_at) / Fold change /veh CMKLR1 (11741424_a_at) / RFU LOC101060620 /// MAPK8IP1 (11723275_at) / Fold change /veh LOC101060620 /// MAPK8IP1 (11723275_at) / RFU SPTSSB (11747773_x_at) / Fold change /veh SPTSSB (11747773_x_at) / RFU PRSS12 (11739890_at) / Fold change /veh PRSS12 (11739890_at) / RFU BIN1 (11741810_x_at) / Fold change /veh BIN1 (11741810_x_at) / RFU WNT11 (11732464_a_at) / Fold change /veh WNT11 (11732464_a_at) / RFU C10orf10 (11716521_a_at) / Fold change /veh C10orf10 (11716521_a_at) / RFU C5orf56 (11738089_at) / Fold change /veh C5orf56 (11738089_at) / RFU CYB561 (11721691_x_at) / Fold change /veh CYB561 (11721691_x_at) / RFU ANKRD19P (11752326_a_at) / Fold change /veh ANKRD19P (11752326_a_at) / RFU OR2T12 /// OR2T33 /// OR2T8 (11738714_s_at) / Fold change /veh OR2T12 /// OR2T33 /// OR2T8 (11738714_s_at) / RFU VCAN (11748164_a_at) / Fold change /veh VCAN (11748164_a_at) / RFU JSRP1 (11732532_at) / Fold change /veh JSRP1 (11732532_at) / RFU KRTAP10-11 (11738290_x_at) / Fold change /veh KRTAP10-11 (11738290_x_at) / RFU MYO3A (11730013_a_at) / Fold change /veh MYO3A (11730013_a_at) / RFU EBF3 (11725865_a_at) / Fold change /veh EBF3 (11725865_a_at) / RFU CAMK2N1 (11719241_x_at) / Fold change /veh CAMK2N1 (11719241_x_at) / RFU C5orf56 (11738088_a_at) / Fold change /veh C5orf56 (11738088_a_at) / RFU OLFML3 (11715873_a_at) / Fold change /veh OLFML3 (11715873_a_at) / RFU LOC100653217 /// NTM (11731650_a_at) / Fold change /veh LOC100653217 /// NTM (11731650_a_at) / RFU MAPK11 (11762145_a_at) / Fold change /veh MAPK11 (11762145_a_at) / RFU FIZ1 (11724087_x_at) / Fold change /veh FIZ1 (11724087_x_at) / RFU OASL (11726364_x_at) / Fold change /veh OASL (11726364_x_at) / RFU SOX15 (11748057_x_at) / Fold change /veh SOX15 (11748057_x_at) / RFU CD79A (11719716_a_at) / Fold change /veh CD79A (11719716_a_at) / RFU HIST1H1D (11736915_at) / Fold change /veh HIST1H1D (11736915_at) / RFU CASKIN2 (11723855_a_at) / Fold change /veh CASKIN2 (11723855_a_at) / RFU LOC730098 (11760151_x_at) / Fold change /veh LOC730098 (11760151_x_at) / RFU OR4N2 (11742367_at) / Fold change /veh OR4N2 (11742367_at) / RFU PRRT2 (11749266_a_at) / Fold change /veh PRRT2 (11749266_a_at) / RFU SNX32 (11753110_a_at) / Fold change /veh SNX32 (11753110_a_at) / RFU CDHR5 (11726645_a_at) / Fold change /veh CDHR5 (11726645_a_at) / RFU RCAN1 (11760418_a_at) / Fold change /veh RCAN1 (11760418_a_at) / RFU FAM167A (11723789_a_at) / Fold change /veh FAM167A (11723789_a_at) / RFU FAM26E (11764081_at) / Fold change /veh FAM26E (11764081_at) / RFU ISYNA1 (11749810_s_at) / Fold change /veh ISYNA1 (11749810_s_at) / RFU ACY1 (11761880_at) / Fold change /veh ACY1 (11761880_at) / RFU 11764098_at / Fold change /veh 11764098_at / RFU SAMD14 (11745864_x_at) / Fold change /veh SAMD14 (11745864_x_at) / RFU NPB (11741838_a_at) / Fold change /veh NPB (11741838_a_at) / RFU TMPRSS6 (11731388_a_at) / Fold change /veh TMPRSS6 (11731388_a_at) / RFU KRTAP10-2 (11738614_at) / Fold change /veh KRTAP10-2 (11738614_at) / RFU ARHGAP8 /// PRR5-ARHGAP8 (11727945_x_at) / Fold change /veh ARHGAP8 /// PRR5-ARHGAP8 (11727945_x_at) / RFU KRTAP5-7 /// NADSYN1 (11734609_at) / Fold change /veh KRTAP5-7 /// NADSYN1 (11734609_at) / RFU RASL12 (11751679_a_at) / Fold change /veh RASL12 (11751679_a_at) / RFU CDKN2B (11736163_a_at) / Fold change /veh CDKN2B (11736163_a_at) / RFU PRF1 (11729649_at) / Fold change /veh PRF1 (11729649_at) / RFU, ZNF638 /// ZNF638-IT1 / Fold change vs veh, ZNF638 /// ZNF638-IT1 / RFU, PANK3 / Fold change vs veh, PANK3 / RFU, SH3YL1 / Fold change vs veh, SH3YL1 / RFU, ZEB2 / Fold change vs veh, ZEB2 / RFU, NRIP1 / Fold change vs veh, NRIP1 / RFU, PTTG1IP / Fold change vs veh, PTTG1IP / RFU, CAPN2 / Fold change vs veh, CAPN2 / RFU, MED14 / Fold change vs veh, MED14 / RFU, SNORA58 / Fold change vs veh, SNORA58 / RFU, C1orf63 / Fold change vs veh, C1orf63 / RFU, LRRFIP1 / Fold change vs veh, LRRFIP1 / RFU, NDUFAF7 / Fold change vs veh, NDUFAF7 / RFU, SLC12A2 / Fold change vs veh, SLC12A2 / RFU, IBTK / Fold change vs veh, IBTK / RFU, ESF1 / Fold change vs veh, ESF1 / Fold change vs veh, TMEM50B / RFU, TAOK1 / Fold change vs veh, TAOK1 / RFU, ACBD3 / Fold change vs veh, ACBD3 / RFU, TMA16 / Fold change vs veh, TMA16 / RFU, RWDD3 / Fold change vs veh, RWDD3 / RFU, BCAT1 / Fold change vs veh, BCAT1 / RFU, EDEM3 / Fold change vs veh, EDEM3 / RFU, TMEM33 / Fold change vs veh, TMEM33 / RFU, WDR75 / Fold change vs veh, WDR75 / RFU, AHCTF1 / Fold change vs veh, AHCTF1 / RFU, TFRC / Fold change vs veh, TFRC / RFU, ZDHHC17 / Fold change vs veh, ZDHHC17 / RFU, NOM1 / Fold change vs veh, NOM1 / RFU, ARL8B / Fold change vs veh, ARL8B / RFU, ZBTB11 / Fold change vs veh, ZBTB11 / RFU, TAMM41 / Fold change vs veh, TAMM41 / RFU, KIAA1704 /// LOC100996395 / Fold change vs veh, KIAA1704 /// LOC100996395 / RFU, ING1 / Fold change vs veh, ING1 / RFU, TRMT61B / Fold change vs veh, TRMT61B / RFU, FUBP3 / Fold change vs veh, FUBP3 / RFU, TP53 / Fold change vs veh, TP53 / RFU, TNKS2 / Fold change vs veh, TNKS2 / RFU, ZFP14 / Fold change vs veh, ZFP14 / RFU, ACTR2 / Fold change vs veh, ACTR2 / RFU, PPP3R1 / Fold change vs veh, PPP3R1 / RFU, PIK3R1 / Fold change vs veh, PIK3R1 / RFU, HNRNPA1 / Fold change vs veh, HNRNPA1 / RFU, RNF170 / Fold change vs veh, RNF170 / RFU, ZNF28 / Fold change vs veh, ZNF28 / RFU, RNGTT / Fold change vs veh, RNGTT / RFU, OGT / Fold change vs veh, OGT / RFU, BRD1 / Fold change vs veh, BRD1 / RFU, MARS / Fold change vs veh, MARS / RFU, ZNF655 / Fold change vs veh, ZNF655 / RFU, FAHD1 / Fold change vs veh, FAHD1 / RFU, BDP1 / Fold change vs veh, BDP1 / RFU, LRRCC1 / Fold change vs veh, LRRCC1 / RFU, ARID1A / Fold change vs veh, ARID1A / RFU, ZNF146 / Fold change vs veh, ZNF146 / RFU, ZNF330 / Fold change vs veh, ZNF330 / RFU, GPN3 / Fold change vs veh, GPN3 / RFU, C9orf123 / Fold change vs veh, C9orf123 / RFU, N4BP2L2 / Fold change vs veh, N4BP2L2 / RFU, ARFIP1 / Fold change vs veh, ARFIP1 / RFU, FAM179B / Fold change vs veh, FAM179B / RFU, BCL10 / Fold change vs veh, BCL10 / RFU, UHRF1BP1L / Fold change vs veh, UHRF1BP1L / RFU, BET1 / Fold change vs veh, BET1 / RFU, CNOT2 / Fold change vs veh, CNOT2 / RFU, ZNF268 / Fold change vs veh, ZNF268 / Fold change vs veh, ZNF507 / RFU, DGCR2 / Fold change vs veh, DGCR2 / RFU, WDSUB1 / Fold change vs veh, WDSUB1 / Fold change vs veh, HSP90B1 /// MIR3652 / RFU, ADSS / Fold change vs veh, ADSS / RFU, GK / Fold change vs veh, GK / RFU, ZNF148 / Fold change vs veh, ZNF148 / RFU, TAF9 / Fold change vs veh, TAF9 / RFU, SLC1A5 / Fold change vs veh, SLC1A5 / RFU, SLMO2 / Fold change vs veh, SLMO2 / RFU, ABCC4 / Fold change vs veh, ABCC4 / RFU, LOC101060439 /// RAP1B / Fold change vs veh, LOC101060439 /// RAP1B / RFU, RFX7 / Fold change vs veh, RFX7 / RFU, GTPBP10 / Fold change vs veh, GTPBP10 / RFU, CNEP1R1 / Fold change vs veh, CNEP1R1 / RFU, BIVM-ERCC5 /// ERCC5 / Fold change vs veh, BIVM-ERCC5 /// ERCC5 / RFU, ILF3 / Fold change vs veh, ILF3 / RFU 11762660_at / Fold change /veh 11762660_at / RFU VCAN (11757783_s_at) / Fold change /veh VCAN (11757783_s_at) / RFU DDX43 (11728927_at) / Fold change /veh DDX43 (11728927_at) / RFU KRT8 (11758188_x_at) / Fold change /veh KRT8 (11758188_x_at) / RFU NKD1 (11759106_at) / Fold change /veh NKD1 (11759106_at) / RFU SRD5A1 (11742802_a_at) / Fold change /veh SRD5A1 (11742802_a_at) / RFU TPSAB1 /// TPSB2 (11721975_s_at) / Fold change /veh TPSAB1 /// TPSB2 (11721975_s_at) / RFU GSTM3 (11746129_a_at) / Fold change /veh GSTM3 (11746129_a_at) / RFU IL23R (11737362_x_at) / Fold change /veh IL23R (11737362_x_at) / RFU TMEM51 (11727254_a_at) / Fold change /veh TMEM51 (11727254_a_at) / RFU PIWIL2 (11732686_x_at) / Fold change /veh PIWIL2 (11732686_x_at) / RFU ORM1 (11744905_x_at) / Fold change /veh ORM1 (11744905_x_at) / RFU CCDC152 (11743942_at) / Fold change /veh CCDC152 (11743942_at) / RFU ECM1 (11717891_a_at) / Fold change /veh ECM1 (11717891_a_at) / RFU IL23R (11748794_a_at) / Fold change /veh IL23R (11748794_a_at) / RFU TNFAIP8L3 (11732012_x_at) / Fold change /veh TNFAIP8L3 (11732012_x_at) / RFU MBOAT4 (11741988_at) / Fold change /veh MBOAT4 (11741988_at) / RFU 11764193_at / Fold change /veh 11764193_at / RFU TMEM53 (11763286_at) / Fold change /veh TMEM53 (11763286_at) / RFU MAGEB2 (11727129_at) / Fold change /veh MAGEB2 (11727129_at) / RFU TMEM200A (11744735_a_at) / Fold change /veh TMEM200A (11744735_a_at) / RFU CCDC152 (11751479_a_at) / Fold change /veh CCDC152 (11751479_a_at) / RFU FAM211A (11726209_a_at) / Fold change /veh FAM211A (11726209_a_at) / RFU RGS16 (11746705_a_at) / Fold change /veh RGS16 (11746705_a_at) / RFU VCAN (11755009_s_at) / Fold change /veh VCAN (11755009_s_at) / RFU RHOB (11743442_s_at) / Fold change /veh RHOB (11743442_s_at) / RFU RGS16 (11720943_a_at) / Fold change /veh RGS16 (11720943_a_at) / RFU RGS16 (11720944_at) / Fold change /veh RGS16 (11720944_at) / RFU, VPS4B / Fold change vs veh, VPS4B / RFU, CREB1 / Fold change vs veh, CREB1 / RFU, DNAJC13 / Fold change vs veh, DNAJC13 / RFU, GNAQ / Fold change vs veh, GNAQ / RFU, CDK5R1 / Fold change vs veh, CDK5R1 / RFU, ZRANB3 / Fold change vs veh, ZRANB3 / RFU, CUL4A / Fold change vs veh, CUL4A / RFU, CCNY / Fold change vs veh, CCNY / RFU, UFL1 / Fold change vs veh, UFL1 / RFU, COG3 / Fold change vs veh, COG3 / RFU, DIAPH2 / Fold change vs veh, DIAPH2 / RFU, SKA2 / Fold change vs veh, SKA2 / RFU, AFF3 / Fold change vs veh, AFF3 / RFU, LMF1 / Fold change vs veh, LMF1 / RFU, IPO11 / Fold change vs veh, IPO11 / RFU, DFFB / Fold change vs veh, DFFB / RFU, FOXP1 / Fold change vs veh, FOXP1 / RFU, CARD8 / Fold change vs veh, CARD8 / RFU, STRN3 / Fold change vs veh, STRN3 / RFU, ADK / Fold change vs veh, ADK / RFU, RASSF2 / Fold change vs veh, RASSF2 / RFU, WIPF1 / Fold change vs veh, WIPF1 / RFU, LARP1B / Fold change vs veh, LARP1B / RFU, RASA1 / Fold change vs veh, RASA1 / RFU, RB1 / Fold change vs veh, RB1 / RFU, PPFIA1 / Fold change vs veh, PPFIA1 / RFU, MAT2A / Fold change vs veh, MAT2A / RFU, CCT5 / Fold change vs veh, CCT5 / RFU, WDR92 / Fold change vs veh, WDR92 / RFU, CUX1 / Fold change vs veh, CUX1 / RFU, TTC7A / Fold change vs veh, TTC7A / RFU, TMEM135 / Fold change vs veh, TMEM135 / RFU, DEPTOR / Fold change vs veh, DEPTOR / RFU, CPM / Fold change vs veh, CPM / RFU, DNAJB6 / Fold change vs veh, DNAJB6 / RFU, CACNA2D3 / Fold change vs veh, CACNA2D3 / RFU, DTX4 / Fold change vs veh, DTX4 / RFU, TFCP2 / Fold change vs veh, TFCP2 / RFU, GMCL1 /// GMCL1P1 / Fold change vs veh, GMCL1 /// GMCL1P1 / RFU, AEBP2 / Fold change vs veh, AEBP2 / RFU, SNHG1 /// SNORD22 /// SNORD25 /// SNORD26 /// SNORD27 /// SNORD28 /// SNORD29 /// SNORD31 / Fold change vs veh, SNHG1 /// SNORD22 /// SNORD25 /// SNORD26 /// SNORD27 /// SNORD28 /// SNORD29 /// SNORD31 / Fold change (Aza/veh), C12orf56 (ProbeSet 11735607_a_at) / Fold change (ACY-1035/veh), C12orf56 (ProbeSet 11735607_a_at) / Fold change (Aza/veh), FGFR1OP (ProbeSet 11751329_s_at) / Fold change (ACY-1035/veh), FGFR1OP (ProbeSet 11751329_s_at) / Fold change (Aza/veh), VPS36 (ProbeSet 11739960_a_at) / Fold change (ACY-1035/veh), VPS36 (ProbeSet 11739960_a_at) / RFU SYPL1 (11715823_x_at) / Fold change /veh SYPL1 (11715823_x_at) / RFU IGFBP7 (11715501_s_at) / Fold change /veh IGFBP7 (11715501_s_at) / RFU REEP3 (11722064_at) / Fold change /veh REEP3 (11722064_at) / RFU IGLL1 (11728026_x_at) / Fold change /veh IGLL1 (11728026_x_at): dose or concentration left out as unconfirmed
Settings: MV-4-11 cells, 48 hours

Nc1ccc(-c2cccs2)cc1NC(=O)c1ccc2c(c1)cc(C1CC1)n2CCN1CCOCC1 [ACY-1035]
RFU IL23R (11748794_a_at): 5.77 RFU
